Tests used:
Type in all cases: cell-based
HCC827 cells = assay: Cell growth inhibition (CellTiter-Glo, 3 days) in HCC827; conditions: Homo sapiens, 72 h, 3 days after administration
Method in brief: (§1)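 Growth inhibition was scored by CellTiter-Glo luminescence after 3-day compound exposure at various concentrations. Cells were plated at 5000/well the day before treatment: A431 in DMEM and HCC827 in RPMI, each with 10% FBS.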

[1] = system: HCC827-SVD cells (human EGFR exon 20 insertion mutant D770_N771 insSVD); assay: Cell growth inhibition (CellTiter-Glo, 3 days) in HCC827-SVD; conditions: 72 h, 3 days after administration
Method in brief: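 HCC827 cells carrying lentiviral codon-optimized EGFR D770_N771 insSVD, with endogenous EGFR knocked out by CRISPR (single clone), seeded at 5000 cells/well in RPMI with 10% FBS. Viability read by CellTiter-Glo luminescence.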

[2] = system: HCC827-ASV cells (human EGFR exon 20 insertion mutant A769_D770insASV); assay: Cell growth inhibition (CellTiter-Glo, 3 days) in HCC827-ASV; conditions: 72 h, 3 days after administration
Method in brief: (§2)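 HCC827 cells lentivirally transduced with codon-optimized ASV or YVMA insertion mutants were seeded at 5000 cells/well in RPMI with 10% FBS and incubated overnight. Compound was added at various concentrations from a 10× stock in medium, with 3 days' incubation. Viability read by CellTiter-Glo luminescence.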

[3] = system: HCC827-YVMA cells (human ERBB2 exon20 insertion mutant A775_G776ins YVMA); assay: Cell growth inhibition (CellTiter-Glo, 3 days) in HCC827-YVMA; conditions: 72 h, 3 days after administration
Method in brief: as §2

A431 cells = assay: Cell growth inhibition (CellTiter-Glo, 3 days) in A431; conditions: Homo sapiens, A-431, 72 h, 3 days after administration
Method in brief: as §1

SMILES	GI50 (HCC827 cells)	GI50 [1]	GI50 [2]	GI50 [3]	GI50 (A431 cells)
C=CC(=O)N1CCC(Nc2cc3c(Nc4ccc(Oc5ccnc(N6CC(O)(C(F)(F)F)C6)c5)cc4F)ncnc3cc2OC)CC1 [Example 206, 1-(4-((4-((2-fluoro-4-((2-(3-hydroxy-3-(trifluoromethyl)azetidin-1-yl)pyridin-4-yl)oxy)phenyl)amino)-7-methoxyquinazolin-6-yl)amino)piperidin-1-yl)prop-2-en-1-one]	60 to 100 nM	< 30 nM	< 30 nM	< 30 nM	100 to 300 nM
C=CC(=O)N1CCC(Nc2cc3c(Nc4ccc(Oc5ccnc(N6CC(C(C)(C)O)C6)c5)cc4F)ncnc3cc2OC)CC1 [Example 146, 1-(4-((4-((2-fluoro-4-((2-(3-(2-hydroxypropan-2-yl)azetidin-1-yl)pyridin-4-yl)oxy)phenyl)amino)-7-methoxyquinazolin-6-yl)amino)piperidin-1-yl)prop-2-en-1-one]	600 to 1000 nM	60 to 100 nM	60 to 100 nM	100 to 300 nM	≥ 1000 nM
C=CC(=O)N1CCC(Nc2cc3c(Nc4ccc(Oc5ccnc(N6CCOC[C@H]6CO)c5)cc4F)ncnc3cc2OC)CC1 [Example 126, (R)-1-(4-((4-((2-fluoro-4-((2-(3-(hydroxymethyl)morpholino)pyridin-4-yl)oxy)phenyl)amino)-7-methoxyquinazolin-6-yl)amino)piperidin-1-yl)prop-2-en-1-one]	≥ 1000 nM	100 to 300 nM	60 to 100 nM	100 to 300 nM	≥ 1000 nM
C=CC(=O)N1CC[C@H](Nc2cc3c(Nc4ccc(Oc5ccn(-c6cnc(OC)nc6)n5)cc4F)ncnc3cc2OC)C1 [Compound 8, (S)-1-(3-((4-((2-fluoro-4-((1-(2-methoxypyrimidin-5-yl)-1H-pyrazol-3-yl)oxy)phenyl)amino)-7-methoxyquinazolin-6-yl)amino)pyrrolidin-1-yl)prop-2-en-1-one]	100 to 300 nM	30 to 60 nM	100 to 300 nM	30 to 60 nM	300 to 600 nM
C=C(F)C(=O)N1CCC(Nc2cc3c(Nc4ccc(Oc5ccn(-c6cnc(C)c(F)c6)n5)cc4F)ncnc3cc2OC)CC1 [Example 23, 2-fluoro-1-(4-((4-((2-fluoro-4-((1-(5-fluoro-6-methylpyridin-3-yl)-1H-pyrazol-3-yl)oxy)phenyl)amino)-7-methoxyquinazolin-6-yl)amino)piperidin-1-yl)prop-2-en-1-one]	≥ 1000 nM	≥ 1000 nM	≥ 1000 nM	600 to 1000 nM	≥ 1000 nM
C=CC(=O)N1CCC(Nc2cc3c(Nc4ccc(Oc5ccnc(-c6ccc(C)nc6)c5)cc4F)ncnc3cc2OC)CC1 [Example 27, 1-(4-((4-((2-fluoro-4-((6′-methyl-[2,3′-bipyridin]-4-yl)oxy)phenyl)amino)-7-methoxyquinazolin-6-yl)amino)piperidin-1-yl)prop-2-en-1-one]	100 to 300 nM	60 to 100 nM	30 to 60 nM	60 to 100 nM	≥ 1000 nM
C=CC(=O)N1CCC(Nc2cc3c(Nc4ccc(Oc5ccn6ncnc6c5)c(Cl)c4)ncnc3cc2OC)CC1 [Compound 7, 1-(4-((4-((4-([1,2,4]triazolo[1,5-a]pyridin-7-yloxy)-3-chlorophenyl)amino)-7-methoxyquinazolin-6-yl)amino)piperidin-1-yl)prop-2-en-1-one]	< 30 nM	< 30 nM	< 30 nM	< 30 nM	< 30 nM
C=CC(=O)N1CCC(Nc2cc3c(Nc4ccc(Oc5ccnc(N6CCN[C@@H](C)C6)c5)cc4F)ncnc3cc2OC)CC1 [Example 225, (S)-1-(4-((4-((2-fluoro-4-((2-(3-methylpiperazin-1-yl)pyridin-4-yl)oxy)phenyl)amino)-7-methoxyquinazolin-6-yl)amino)piperidin-1-yl)prop-2-en-1-one]	≥ 1000 nM	300 to 600 nM	300 to 600 nM	300 to 600 nM	≥ 1000 nM
C=CC(=O)N1CCC(Nc2cc3c(Nc4ccc(Oc5nc(-c6ccc(OC)nn6)cs5)cc4F)ncnc3cc2OC)CC1 [Example 56, 1-(4-((4-((2-fluoro-4-((4-(6-methoxypyridazin-3-yl)thiazol-2-yl)oxy)phenyl)amino)-7-methoxyquinazolin-6-yl)amino)piperidin-1-yl)prop-2-en-1-one]	30 to 60 nM	< 30 nM	< 30 nM	< 30 nM	< 30 nM
C=CC(=O)N1CCC(Nc2cc3c(Nc4ccc(Oc5ccnc(-c6nccs6)c5)cc4F)ncnc3cc2OC)CC1 [Example 43, 1-(4-((4-((2-fluoro-4-((2-(thiazol-2-yl)pyridin-4-yl)oxy)phenyl)amino)-7-methoxyquinazolin-6-yl)amino)piperidin-1-yl)prop-2-en-1-one]	60 to 100 nM	< 30 nM	< 30 nM	< 30 nM	300 to 600 nM
C=CC(=O)N1CCC(Nc2cc3c(Nc4ccc(Oc5ccnc(-c6cscn6)c5)cc4F)ncnc3cc2OC)CC1 [Compound 41, 1-(4-((4-((2-fluoro-4-((2-(thiazol-4-yl)pyridin-4-yl)oxy)phenyl)amino)-7-methoxyquinazolin-6-yl)amino)piperidin-1-yl)prop-2-en-1-one]	60 to 100 nM	< 30 nM	< 30 nM	< 30 nM	300 to 600 nM
C=CC(=O)N1CCC(Nc2cc3c(Nc4ccc(Oc5ccn(-c6ccnc(OC)n6)n5)cc4F)ncnc3cc2OC)CC1 [Example 47, 1-(4-((4-((2-fluoro-4-((1-(2-methoxypyrimidin-4-yl)-1H-pyrazol-3-yl)oxy)phenyl)amino)-7-methoxyquinazolin-6-yl)amino)piperidin-1-yl)prop-2-en-1-one]	30 to 60 nM	30 to 60 nM	< 30 nM	< 30 nM	300 to 600 nM
C=CC(=O)N1CCC(Nc2cc3c(Nc4ccc(Oc5ccnc(N6CCOCC6)c5)cc4F)ncnc3cc2OC)CC1 [Compound 35, 1-(4-((4-((2-fluoro-4-((2-morpholinopyridin-4-yl)oxy)phenyl)amino)-7-methoxyquinazolin-6-yl)amino)piperidin-1-yl)prop-2-en-1-one]	100 to 300 nM	< 30 nM	< 30 nM	< 30 nM	≥ 1000 nM

The next lines start with the values.

GI50 (HCC827 cells)	GI50 [1]	GI50 [2]	GI50 [3]	GI50 (A431 cells)	SMILES
600 to 1000 nM	300 to 600 nM	300 to 600 nM	300 to 600 nM	≥ 1000 nM	C=CC(=O)N1CCC(Nc2cc3c(Nc4ccc(Oc5ccnc(N6CC7CN(C)CC7C6)c5)cc4F)ncnc3cc2OC)CC1 (centres unmarked) [Example 240, 1-(4-((4-((2-fluoro-4-((2-(5-methylhexahydropyrrolo[3,4-c]pyrrol-2(1H)-yl)pyridin-4-yl)oxy)phenyl)amino)-7-methoxyquinazolin-6-yl)amino)piperidin-1-yl)prop-2-en-1-one]
< 30 nM	30 to 60 nM	60 to 100 nM	60 to 100 nM	600 to 1000 nM	C=CC(=O)N1CCC(Nc2cc3c(Nc4ccc(Oc5ccnc(N6C[C@H]7CCCC[C@H]7C6)c5)cc4F)ncnc3cc2OC)CC1 [Example 241, 1-(4-((4-((2-fluoro-4-((2-((3aR,7aS)-octahydro-2H-isoindol-2-yl)pyridin-4-yl)oxy)phenyl)amino)-7-methoxyquinazolin-6-yl)amino)piperidin-1-yl)prop-2-en-1-one]
100 to 300 nM	60 to 100 nM	100 to 300 nM	100 to 300 nM	300 to 600 nM	C=CC(=O)N1CCC(Nc2cc3c(Nc4ccc(Oc5ccnc(N6CCC(O)CC6)c5)c(Cl)c4)ncnc3cc2OC)CC1 [Example 229, 1-(4-((4-((3-chloro-4-((2-(4-hydroxypiperidin-1-yl)pyridin-4-yl)oxy)phenyl)amino)-7-methoxyquinazolin-6-yl)amino)piperidin-1-yl)prop-2-en-1-one]
≥ 1000 nM	300 to 600 nM	100 to 300 nM	100 to 300 nM	≥ 1000 nM	C=CC(=O)N1CCC(Nc2cc3c(Nc4ccc(Oc5ccnc(N6CCN(C)CC6)c5)cc4)ncnc3cc2OC)CC1 [Example 231, 1-(4-((7-methoxy-4-((4-((2-(4-methylpiperazin-1-yl)pyridin-4-yl)oxy)phenyl)amino)quinazolin-6-yl)amino)piperidin-1-yl)prop-2-en-1-one]
60 to 100 nM	< 30 nM	< 30 nM	< 30 nM	600 to 1000 nM	C=CC(=O)N1CCC(Nc2cc3c(Nc4ccc(Oc5ccnc(N6C[C@H](F)[C@@H](F)C6)c5)cc4F)ncnc3cc2OC)CC1 [Example 264, 1-(4-((4-((4-((2-((3S,4S)-3,4-difluoropyrrolidin-1-yl)pyridin-4-yl)oxy)-2-fluorophenyl)amino)-7-methoxyquinazolin-6-yl)amino)piperidin-1-yl)prop-2-en-1-one]
100 to 300 nM	30 to 60 nM	30 to 60 nM	30 to 60 nM	600 to 1000 nM	C=CC(=O)N1CCC(Nc2cc3c(Nc4ccc(Oc5ccnc(N6CC(F)(F)C(F)(F)C6)c5)cc4F)ncnc3cc2OC)CC1 [Example 261, 1-(4-((4-((2-fluoro-4-((2-(3,3,4,4-tetrafluoropyrrolidin-1-yl)pyridin-4-yl)oxy)phenyl)amino)-7-methoxyquinazolin-6-yl)amino)piperidin-1-yl)prop-2-en-1-one]

— US20240398805A1, “QUINAZOLINE DERIVED COMPOUNDS AS EGFR INHIBITORS AND THEIR USES THEREOF” (ACCUTAR BIOTECHNOLOGY INC., priority 2021, published 2024)
